Results from the NIST ThermoML archive (doi:10.1021/je3011979).

Experiments:
[1] = xn = mol fraction of the nth substance listed; conditions: 101 kPa, Liquid, Vibrating tube method
[2] = excess molar enthalpy (molar enthalpy of mixing); xn = mol fraction of the nth substance listed; conditions: 101 kPa, Liquid, Calvet calorimetry

CCCOC(C)=O [propyl ethanoate] + CCCCCCCCCC
Conditions | excess molar enthalpy [kcal/mol] | mass density [kg/m3]
[1], 291.15 K, x1 = 0.0491 | – | 735.2
[1], 291.15 K, x1 = 0.1081 | – | 740.2
[1], 291.15 K, x1 = 0.2054 | – | 749.4
[1], 291.15 K, x1 = 0.2933 | – | 758.8
[1], 291.15 K, x1 = 0.372 | – | 768
[1], 291.15 K, x1 = 0.4514 | – | 778.3
[1], 291.15 K, x1 = 0.5221 | – | 788.4
[1], 291.15 K, x1 = 0.5892 | – | 798.8
[1], 291.15 K, x1 = 0.6468 | – | 808.4
[1], 291.15 K, x1 = 0.7079 | – | 819.6
[1], 291.15 K, x1 = 0.7955 | – | 837.5
[1], 291.15 K, x1 = 0.8151 | – | 841.8
[1], 291.15 K, x1 = 0.8554 | – | 851.2
[1], 291.15 K, x1 = 0.8932 | – | 860.5
[1], 291.15 K, x1 = 0.9454 | – | 874.3
[1], 291.15 K, x1 = 0.9719 | – | 881.5
[1], 291.15 K, x1 = 1 | – | 889.6
[1], 298.15 K, x1 = 0.0402 | – | 729.1
[1], 298.15 K, x1 = 0.1191 | – | 735.7
[1], 298.15 K, x1 = 0.2077 | – | 744
[1], 298.15 K, x1 = 0.2921 | – | 752.8
[1], 298.15 K, x1 = 0.3727 | – | 762.1
[1], 298.15 K, x1 = 0.4509 | – | 772
[1], 298.15 K, x1 = 0.5172 | – | 781.2
[1], 298.15 K, x1 = 0.5788 | – | 790.5
[1], 298.15 K, x1 = 0.6343 | – | 799.5
[1], 298.15 K, x1 = 0.6912 | – | 809.6
[1], 298.15 K, x1 = 0.7504 | – | 820.9
[1], 298.15 K, x1 = 0.7988 | – | 830.9
[1], 298.15 K, x1 = 0.8462 | – | 841.5
[1], 298.15 K, x1 = 0.8882 | – | 851.7
[1], 298.15 K, x1 = 0.9267 | – | 861.6
[1], 298.15 K, x1 = 0.9583 | – | 870.2
[1], 298.15 K, x1 = 1 | – | 882.5
[1], 318.15 K, x1 = 0.064 | – | 715.5
[1], 318.15 K, x1 = 0.1164 | – | 719.7
[1], 318.15 K, x1 = 0.1961 | – | 726.8
[1], 318.15 K, x1 = 0.2794 | – | 734.8
[1], 318.15 K, x1 = 0.3548 | – | 742.9
[1], 318.15 K, x1 = 0.4333 | – | 752.2
[1], 318.15 K, x1 = 0.4936 | – | 760
[1], 318.15 K, x1 = 0.5563 | – | 768.6
[1], 318.15 K, x1 = 0.6213 | – | 778.5
[1], 318.15 K, x1 = 0.6781 | – | 788
[1], 318.15 K, x1 = 0.7226 | – | 795.8
[1], 318.15 K, x1 = 0.7733 | – | 805.5
[1], 318.15 K, x1 = 0.8247 | – | 816.1
[1], 318.15 K, x1 = 0.867 | – | 825.5
[1], 318.15 K, x1 = 0.9092 | – | 835.5
[1], 318.15 K, x1 = 0.9463 | – | 844.9
[1], 318.15 K, x1 = 1 | – | 859.8
[1], 328.15 K, x1 = 0.0485 | – | 706.6
[1], 328.15 K, x1 = 0.1075 | – | 711.1
[1], 328.15 K, x1 = 0.196 | – | 718.6
[1], 328.15 K, x1 = 0.2952 | – | 728
[1], 328.15 K, x1 = 0.3758 | – | 736.6
[1], 328.15 K, x1 = 0.4553 | – | 746
[1], 328.15 K, x1 = 0.5227 | – | 754.7
[1], 328.15 K, x1 = 0.5818 | – | 763
[1], 328.15 K, x1 = 0.6506 | – | 773.6
[1], 328.15 K, x1 = 0.7058 | – | 782.9
[1], 328.15 K, x1 = 0.7598 | – | 792.6
[1], 328.15 K, x1 = 0.8204 | – | 804.6
[1], 328.15 K, x1 = 0.8511 | – | 811.2
[1], 328.15 K, x1 = 0.8851 | – | 818.8
[1], 328.15 K, x1 = 0.9321 | – | 830.2
[1], 328.15 K, x1 = 0.958 | – | 836.9
[1], 328.15 K, x1 = 1 | – | 848.3
[2], 291.15 K, x1 = 0.0703 | 0.0935 | –
[2], 291.15 K, x1 = 0.1623 | 0.18 | –
[2], 291.15 K, x1 = 0.2528 | 0.2536 | –
[2], 291.15 K, x1 = 0.3401 | 0.305 | –
[2], 291.15 K, x1 = 0.4179 | 0.3344 | –
[2], 291.15 K, x1 = 0.4892 | 0.3482 | –
[2], 291.15 K, x1 = 0.5501 | 0.3489 | –
[2], 291.15 K, x1 = 0.6049 | 0.3413 | –
[2], 291.15 K, x1 = 0.615 | 0.3377 | –
[2], 291.15 K, x1 = 0.6649 | 0.3196 | –
[2], 291.15 K, x1 = 0.7166 | 0.2935 | –
[2], 291.15 K, x1 = 0.7751 | 0.2524 | –
[2], 291.15 K, x1 = 0.8324 | 0.202 | –
[2], 291.15 K, x1 = 0.8924 | 0.14 | –
[2], 291.15 K, x1 = 0.9524 | 0.0739 | –
[2], 298.15 K, x1 = 0.1028 | 0.127 | –
[2], 298.15 K, x1 = 0.2102 | 0.212 | –
[2], 298.15 K, x1 = 0.3062 | 0.2768 | –
[2], 298.15 K, x1 = 0.3924 | 0.3148 | –
[2], 298.15 K, x1 = 0.4676 | 0.3332 | –
[2], 298.15 K, x1 = 0.5348 | 0.3384 | –
[2], 298.15 K, x1 = 0.5925 | 0.3334 | –
[2], 298.15 K, x1 = 0.6163 | 0.3258 | –
[2], 298.15 K, x1 = 0.6615 | 0.3119 | –
[2], 298.15 K, x1 = 0.71 | 0.2856 | –
[2], 298.15 K, x1 = 0.7601 | 0.2572 | –
[2], 298.15 K, x1 = 0.8123 | 0.215 | –
[2], 298.15 K, x1 = 0.8626 | 0.169 | –
[2], 298.15 K, x1 = 0.9119 | 0.118 | –
[2], 298.15 K, x1 = 0.9581 | 0.0619 | –
[2], 318.15 K, x1 = 0.1083 | 0.133 | –
[2], 318.15 K, x1 = 0.2064 | 0.2204 | –
[2], 318.15 K, x1 = 0.3068 | 0.2894 | –
[2], 318.15 K, x1 = 0.3885 | 0.326 | –
[2], 318.15 K, x1 = 0.4625 | 0.3456 | –
[2], 318.15 K, x1 = 0.5203 | 0.3475 | –
[2], 318.15 K, x1 = 0.571 | 0.3423 | –
[2], 318.15 K, x1 = 0.6098 | 0.3325 | –
[2], 318.15 K, x1 = 0.6588 | 0.3176 | –
[2], 318.15 K, x1 = 0.7129 | 0.2928 | –
[2], 318.15 K, x1 = 0.7682 | 0.2588 | –
[2], 318.15 K, x1 = 0.8288 | 0.212 | –
[2], 318.15 K, x1 = 0.8862 | 0.153 | –
[2], 318.15 K, x1 = 0.948 | 0.0829 | –
